Source: patent publication US7138411B2, “Substituted benzopyran derivatives for the treatment of inflammation” (G.D. Searle & Co., priority 1997, dated 2006)
Where a name gives a salt, the structure may show the parent alone.

Structure (SMILES)	melting point [°C]
Cc1ccc2c(c1)OC(C(F)(F)F)C(C(=O)O)=C2 (centres unmarked) [Example 3, 7-Methyl-2-trifluoromethyl-2H-1-benzopyran-3-carboxylic acid]	202.1 to 203.1
O=C(O)C1=Cc2ccc(C(F)(F)F)cc2OC1C(F)(F)F (centres unmarked) [Example 4, 2,7-bis(Trifluoromethyl)-2H-1-benzopyran-3-carboxylic acid]	190.3 to 193.5
O=C(O)C1=Cc2ccc(Br)cc2OC1C(F)(F)F (centres unmarked) [Example 5, 7-Bromo-2-trifluoromethyl-2H-1-benzopyran-3-carboxylic acid]	198.4 to 199.5
O=C(O)C1=Cc2ccccc2OC1C(F)(F)F (centres unmarked) [Example 10, 2-Trifluoromethyl-2H-1-benzopyran-3-carboxylic acid]	152.2 to 153.3
O=C(O)C1=Cc2cccc(F)c2OC1C(F)(F)F (centres unmarked) [Example 17, 8-Fluoro-2-trifluoromethyl-2H-1-benzopyran-3-carboxylic acid]	197.7 to 210.1
O=C(O)C1=Cc2ccc(Cl)c(Cl)c2OC1C(F)(F)F (centres unmarked) [Example 19, 7,8-Dichloro-2-trifluoromethyl-2H-1-benzopyran-3-carboxylic acid]	219.5 to 220.9
CC(C)Oc1ccc2c(c1)OC(C(F)(F)F)C(C(=O)O)=C2 (centres unmarked) [Example 20, 7-Isopropyloxy-2-trifluoromethyl-2H-1-benzopyran-3-carboxylic acid]	161 to 163
CCc1cccc2c1OC(C(F)(F)F)C(C(=O)O)=C2 (centres unmarked) [Example 28, 8-Ethyl-2-trifluoromethyl-2H-1-benzopyran-3-carboxylic acid]	185.4 to 186.8
Nc1ccc2c(c1)C=C(C(=O)O)C(C(F)(F)F)O2 (centres unmarked) [Example 36, 6-Amino-2-trifluoromethyl-2H-1-benzopyran-3-carboxylic acid]	126 to 133
O=C(O)C1=Cc2cc([N+](=O)[O-])ccc2OC1C(F)(F)F (centres unmarked) [Example 37, 6-Nitro-2-trifluoromethyl-2H-1-benzopyran-3-carboxylic acid]	187 to 189

The next lines start with the values.

melting point [°C]	Structure (SMILES)
> 300	O=C(O)C1=Cc2cc(Cl)c(Oc3ccc(C(=O)O)cc3)cc2OC1C(F)(F)F (centres unmarked) (as salt: potassium) [Example 206, 7-(4-Carboxyphenoxy)-6-chloro-2-(trifluoromethyl)-2H-1-benzopyran-3-carboxylic acid]
> 300	O=C(O)C1=Cc2cc(Cl)c(Oc3ccc(C(=O)O)cc3Cl)cc2OC1C(F)(F)F (centres unmarked) (as salt: potassium) [Example 207, 7-(4-Carboxy-2-chloro-phenoxy)-6-chloro-2-(trifluoromethyl)-2H-1-benzopyran-3-carboxylic acid]
288.1 to 289.2	O=C(O)C1=Cc2cc(Cl)c(Oc3cccc(C(=O)O)c3)cc2OC1C(F)(F)F (centres unmarked) (as salt: potassium) [Example 208, 7-(3-Carboxyphenoxy)-6-chloro-2-(trifluoromethyl)-2H-1-benzopyran-3-carboxylic acid]
207 to 211	O=C(O)C1=Cc2cc(F)cc(F)c2OC1C(F)(F)F (centres unmarked) [Example 41, 6,8-Difluoro-2-trifluoromethyl-2H-1-benzopyran-3-carboxylic acid]
214.4 to 215.4	CCN(CC)c1ccc2c(c1)OC(C(F)(F)F)C(C(=O)O)=C2 (centres unmarked) [Example 48, 7-(N,N-Diethylamino)-2-trifluoromethyl-2H-1-benzopyran-3-carboxylic acid]
187.9 to 189.8	NS(=O)(=O)c1ccc2c(c1)C=C(C(=O)O)C(C(F)(F)F)O2 (centres unmarked) [Example 51, 6-Aminosulfonyl-2-trifluoromethyl-2H-1-benzopyran-3-carboxylic acid]
238 to 240	CCN(CC)S(=O)(=O)c1ccc2c(c1)C=C(C(=O)O)C(C(F)(F)F)O2 (centres unmarked) [Example 58, 6-N,N-Diethylaminosulfonyl-2-trifluoromethyl-2H-1-benzopyran-3-carboxylic acid]
